Results: patent US9023789B2, “Amylin analogs and pharmaceutical compositions thereof” (Novo Nordisk A/S, priority 2012, dated 2015)
Where two headings read alike, the source gives them in different places. Numbered stars: 1 amine (or outer) side, 2 acyl side, 3 side chain; on linkers, the order of the positions; unused ones are H or OH. Bridge positions count the residues as written; N and C are the ends. Peptide text beside a SMILES is read from it. * marks the point of attachment. C20 diacid = O=C(O)CCCCCCCCCCCCCCCCCCC(=O)*; γGlu = O=C(O)[C@H](CCC(=O)[*:2])N[*:1]

What was measured:
[1] = target: T1, human amylin receptor (membranes from Amylin 3(a)/CRE-luc cells) (Homo sapiens, UniProt O60896+P30988); assay: ASSAY (V) binding to the human amylin receptor (SPA, 125I-rat amylin);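 note: competition binding of cell membranes (35 ng/µL) mixed with SPA beads in 384-well plates at 40 µL total volume, read by scintillation counting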
T1 construct: expressed in transfected cells
T1 sequence (P30988 25-474): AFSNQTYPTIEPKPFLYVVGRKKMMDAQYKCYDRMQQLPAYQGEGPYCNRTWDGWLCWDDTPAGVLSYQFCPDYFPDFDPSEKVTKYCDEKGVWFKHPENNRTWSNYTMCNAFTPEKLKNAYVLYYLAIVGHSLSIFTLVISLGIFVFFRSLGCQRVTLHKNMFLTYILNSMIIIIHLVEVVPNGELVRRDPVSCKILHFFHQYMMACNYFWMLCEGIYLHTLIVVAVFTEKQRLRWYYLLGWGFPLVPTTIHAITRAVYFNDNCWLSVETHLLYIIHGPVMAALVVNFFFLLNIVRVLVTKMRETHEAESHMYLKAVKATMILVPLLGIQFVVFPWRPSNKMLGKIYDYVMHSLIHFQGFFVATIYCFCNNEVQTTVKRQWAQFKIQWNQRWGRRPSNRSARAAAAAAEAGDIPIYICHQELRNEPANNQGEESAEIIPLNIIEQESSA
T1 sequence (O60896 24-148 partner): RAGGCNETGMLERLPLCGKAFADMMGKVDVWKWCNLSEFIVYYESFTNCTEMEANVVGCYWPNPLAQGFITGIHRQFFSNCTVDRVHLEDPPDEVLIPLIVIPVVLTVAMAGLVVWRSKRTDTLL

[2] = target: T2, rat amylin receptor (rat calcitonin receptor + rat RAMP 3) (Rattus norvegicus, UniProt P32214+Q9JJ73); assay: ASSAY (VI) binding to the rat amylin receptor; settings: Table 7
T2 construct: expressed in transfected cells; host or cells: BHK tk'ts 13 (transient, FuGENE 6), membranes
T2 sequence (P32214 25-479 isoform P32214-2 limits assumed): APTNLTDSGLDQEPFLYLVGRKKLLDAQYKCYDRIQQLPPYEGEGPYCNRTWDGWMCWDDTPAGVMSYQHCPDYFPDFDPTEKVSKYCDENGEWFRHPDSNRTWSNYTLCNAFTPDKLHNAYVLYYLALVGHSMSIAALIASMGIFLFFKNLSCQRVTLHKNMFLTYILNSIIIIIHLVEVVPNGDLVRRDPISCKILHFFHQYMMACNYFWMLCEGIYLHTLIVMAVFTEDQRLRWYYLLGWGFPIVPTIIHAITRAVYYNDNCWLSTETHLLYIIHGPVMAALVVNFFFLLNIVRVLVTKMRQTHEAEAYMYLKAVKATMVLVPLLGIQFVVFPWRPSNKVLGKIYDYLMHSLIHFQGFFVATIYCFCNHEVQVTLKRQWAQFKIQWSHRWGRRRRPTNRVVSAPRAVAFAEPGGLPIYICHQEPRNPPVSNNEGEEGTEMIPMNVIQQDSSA
T2 sequence (Q9JJ73 23-147 partner): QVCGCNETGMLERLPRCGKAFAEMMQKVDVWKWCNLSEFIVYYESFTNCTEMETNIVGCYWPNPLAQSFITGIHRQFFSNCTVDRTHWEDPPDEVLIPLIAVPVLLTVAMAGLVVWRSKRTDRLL
Protocol: Assay (VI)—Determination of the Binding to the Rat Amylin Receptor […] The BHK tk′ts 13 cells were transiently transfected with rat calcitonin receptor using FuGENE® 6 (Roche), according to the manufacturer's recommendations. […] Approximately 48 hours after transfection, the cells were harvested and membranes were prepared.

[3] = target: T3, human amylin 3(a) receptor (human calcitonin receptor + RAMP-3) in BHK570 cells (Homo sapiens, UniProt O60896+P30988); assay: ASSAY (II)a functional assay, human amylin receptor (CRE luciferase); format: cell-based
T3 construct: expressed in transfected cells
Text: 1. Luciferase Assay Outline
Activation of calcitonin and amylin (coexpression of calcitonin receptor and receptor activity modifying proteins (RAMP)) receptors lead to increased intracellular concentrations of cAMP. Consequently, transcription is activated by promoters containing multiple copies of the cAMP response element (CRE). It is thus possible to measure amylin activity by the use of a CRE luciferase reporter gene introduced into BHK cells also expressing calcitonin or amylin receptors.
2. Construction of Calcitonin (a)- and Amylin 3(a)-Receptor/CRE-Luc Cell Line.
The cell line was further transfected with RAMP-3, using standard methods. This turns the calcitonin receptor into an amylin 3(a) receptor. Methotrexate, Neomycin, and Hygromycin are selection markers for luciferase, the calcitonin receptor, and RAMP-3, respectively.
To perform activity assays, BHK calcitonin (a) receptor- or amylin 3(a)-receptor/CRE-luc cells were seeded in white 96 well culture plates at a density of about 20.000 cells/well. […] After incubation overnight at 37° C. and 5% CO2, the growth medium was replaced by 50 μl/well assay medium (DMEM (without phenol red), Glutamax™, 10% FBS, and 10 mM Hepes, pH 7.4). Further, 50 μl/well of standard or sample in assay buffer were added. After 3 hours incubation at 37° C. and 5% CO2, the assay medium with standard or sample were removed and replaced by 100 μl/well PBS. Further, 100 μl/well LucLite™ was added. The plates were sealed and incubated at room temperature for 30 minutes. Finally, luminescence was measured on a TopCounter (Packard) in SPC (single photon counting) mode.

[4] = ASSAY (IV) determination of solubility; format: physicochemical
Protocol: Assay (IV)—Determination of Solubility
The polypeptide was dissolved in water at −500 nmol/ml and mixed 1:1 with a series of buffers (100 mM glycylglycine pH 3.0, 100 mM glycylglycine pH 4.0, 100 mM glycylglycine pH 5.0, 100 mM bistrispropane pH 6.0, 100 mM bistrispropane pH 6.5, 100 mM bistrispropane pH 7.0, 100 mM bistrispropane pH 7.5, 100 mM bistrispropane pH 8.0). After 18 hours at room temperature the samples were centrifuged and the polypeptide concentration determined by UPLC.

[5] = ASSAY (III) ThT fibrillation assay for physical stability; format: physicochemical
Text: Assay (III)—ThT Fibrillation Assays for the Assessment of Physical Stability of Protein Formulations Low physical stability of a polypeptide may lead to amyloid fibril formation, which is observed as well-ordered, thread-like macromolecular structures in the sample eventually resulting in gel formation. This has traditionally been measured by visual inspection of the sample. However, that kind of measurement is very subjective and depending on the observer. Therefore, the application of a small molecule indicator probe is much more advantageous. Thioflavin T (ThT) is such a probe and has a distinct fluorescence signature when binding to fibrils [Naiki et al. (1989) Anal. […] LeVine (1999) Methods. Enzymol. […], 274-284]. The time course for fibril formation can be described by a sigmoidal curve with the following expression [Nielsen et al. (2001) Biochemistry 40, 6036-6046]; […] Here, F is the ThT fluorescence at the time t. The constant t0 is the time needed to reach 50% of maximum fluorescence. […] Few of those intermediates nucleate to form a template onto which further intermediates may assembly and the fibrillation proceeds. The lag-time corresponds to the interval in which the critical mass of nucleus is built up and the apparent rate constant is the rate with which the fibril itself is formed. Sample Preparation Samples were prepared freshly before each assay. Each sample composition is described in each example. The pH of the sample was adjusted to the desired value using appropriate amounts of concentrated NaOH and HClO4 or HCl. Thioflavin T was added to the samples from a stock solution in H2O to a final concentration of 1 μM. Sample aliquots of 200 μl were placed in a 96 well microtiter plate (Packard OptiPlate™96, white polystyrene). Usually, four or eight replica of each sample (corresponding to one test condition) were placed in one column of wells. The plate was sealed with Scotch Pad (Qiagen). Incubation and Fluorescence Measurement Incubation at given temperature, shaking and measurement of the ThT fluorescence emission were done in a Fluoroskan Ascent FL fluorescence platereader or Varioskan platereader (Thermo Labsystems). The temperature was adjusted to 37° C. The orbital shaking was adjusted to 960 rpm with an amplitude of 1 mm in all the presented data. Fluorescence measurement was done using excitation through a 444 nm filter and measurement of emission through a 485 nm filter. Each run was initiated by incubating the plate at the assay temperature for 10 min. The plate was measured every 20 minutes for a desired period of time. Between each measurement, the plate was shaken and heated as described. Data Handling The measurement points were saved in Microsoft Excel format for further processing and curve drawing and fitting was performed using GraphPad Prism. The background emission from ThT in the absence of fibrils was negligible. The data points are typically a mean of four or eight samples and shown with standard deviation error bars. Only data obtained in the same experiment (i.e. samples on the same plate) are presented in the same graph ensuring a relative measure of fibrillation between experiments. The data set may be fitted to Eq. […] However, since full sigmodial curves in this case are not always achieved during the measurement time, the degree of fibrillation is expressed as ThT fluorescence tabulated as the mean of the samples and shown with the standard deviation at various time points. Measurement of Initial and Final Concentrations The polypeptide concentration in each of the tested formulations were measured both before application in the ThT fibrillation assay (“Initial”) and after completion of the ThT fibrillation (“After ThT assay”). Concentrations were determined by reverse HPLC methods using a pramlintide standard as a reference. Before measurement after completion 150 μl was collected from each of the replica and transferred to an Eppendorf tube. These were centrifuged at 30000 G for 40 mins. […]

[6] = Table 5, selectivity, hCTR bind IC50 / hAmylin-R bind IC50
[7] = Table 7, human binding selectivity, included for comparison
[8] = hCTR funct. EC50 / hAmylin-R funct. EC50
[9] = hCTR funct. EC50 over hAmylin-R funct. EC50
[10] = human functional selectivity: hCTR funct. EC50 / hAmylin-R funct. EC50

Ratio hCT/hAmylin binding [1, 6]	Ratio hCT/hAmylin binding [1, 7]	IC50 ([2]; binding to rat amylin receptor, read-out: rAmylin-R bind IC50) [nM]	Ratio rCT/rAmylin binding ([2]; rat binding selectivity, rCTR IC50 / rAmylin-R IC50)	Ratio hCT/hAmylin funct. [3, 8]	Ratio hCT/hAmylin funct. [3, 9]	Ratio hCT/hAmylin funct. [3, 10]	solubility at 18 h ([4]; bistrispropane buffer, pH 6.5, read-out: Solubility pH 6.5 Concentration) [µM]	solubility at 18 h ([4]; bistrispropane buffer, pH 7.5, read-out: Solubility pH 7.5 Concentration) [µM]	solubility at 18 h ([4]; bistrispropane buffer, pH 6.0, read-out: Solubility pH 6.0 Concentration) [µM]	solubility at 18 h ([4]; bistrispropane buffer, pH 7.0, read-out: Solubility pH 7.0 Concentration) [µM]	solubility at 18 h ([4]; bistrispropane buffer, pH 8.0, read-out: Solubility pH 8.0 Concentration) [µM]	solubility at 18 h ([4]; glycylglycine buffer, pH 3.0, read-out: Solubility pH 3.0 Concentration) [µM]	solubility at 18 h ([4]; glycylglycine buffer, pH 4.0, read-out: Solubility pH 4.0 Concentration) [µM]	solubility at 18 h ([4]; glycylglycine buffer, pH 5.0, read-out: Solubility pH 5.0 Concentration) [µM]	Ratio hCT/hAmylin funct. ([3]; hCTR funct. EC50 divided by hAmylin-R funct. EC50)	ThT pH 4.0 lag time (h) [5] [h]	SMILES
1.4	1.4	1.3	3.6	1.0	1.0	1.0	–	–	–	–	–	–	–	–	–	–	CC(C)C[C@H](NC(=O)[C@H](CCCNC(=N)N)NC(=O)[C@H](CCC(N)=O)NC(=O)[C@@H](NC(=O)[C@H](C)NC(=O)[C@@H]1CSSC[C@H](NC(=O)[C@H](CCCCN)NC(=O)CC[C@H](NC(=O)CCCCCCCCCCCCCCCCCCC(=O)O)C(=O)O)C(=O)N[C@@H](CC(N)=O)C(=O)N[C@@H]([C@@H](C)O)C(=O)N[C@@H](C)C(=O)N[C@@H]([C@@H](C)O)C(=O)N1)[C@@H](C)O)C(=O)N[C@@H](C)C(=O)N[C@@H](CCC(=O)O)C(=O)N[C@@H](Cc1ccccc1)C(=O)N[C@@H](CC(C)C)C(=O)N[C@@H](CCCNC(=N)N)C(=O)N[C@@H](Cc1c[nH]cn1)C(=O)N[C@@H](CO)C(=O)N[C@@H](CO)C(=O)N1CCC[C@H]1C(=O)N[C@@H](CC(N)=O)C(=O)N[C@@H](Cc1ccccc1)C(=O)NCC(=O)N[C@@H](C)C(=O)N1CCC[C@H]1C(=O)N[C@@H](CC(C)C)C(=O)N[C@@H](CO)C(=O)N[C@@H](CO)C(=O)N[C@H](C(=O)N[C@@H](CC(N)=O)C(=O)N[C@H](C(=O)NCC(=O)N[C@@H](CO)C(=O)N[C@@H](CC(N)=O)C(=O)N[C@H](C(=O)N1CCC[C@H]1C(N)=O)[C@@H](C)O)C(C)C)[C@@H](C)O [Example 5] ({C20 diacid-γGlu}-KCNTATCATQRLAEFLRHSSPNFGAPLSSTNVGSNTP-NH2; disulfide 2-7)
2.2	2.2	–	–	1.6	1.6	1.6	≥ 200	≥ 200	≥ 200	≥ 200	≥ 200	≥ 200	≥ 200	≥ 200	1.6	45	CC[C@H](C)[C@H](NC(=O)[C@H](C)NC(=O)CNC(=O)[C@H](Cc1ccccc1)NC(=O)[C@H](CC(N)=O)NC(=O)[C@@H]1CCCN1C(=O)[C@H](CO)NC(=O)[C@H](CO)NC(=O)[C@H](Cc1c[nH]cn1)NC(=O)[C@H](CCCNC(=N)N)NC(=O)[C@H](CC(C)C)NC(=O)[C@H](Cc1ccccc1)NC(=O)[C@H](CCC(=O)O)NC(=O)[C@H](C)NC(=O)[C@H](CC(C)C)NC(=O)[C@H](CCCNC(=N)N)NC(=O)[C@H](CCC(N)=O)NC(=O)[C@@H](NC(=O)[C@H](C)NC(=O)[C@@H]1CSSC[C@H](NC(=O)[C@H](CCCCN)NC(=O)CC[C@H](NC(=O)CC[C@H](NC(=O)CCCCCCCCCCCCCCCCCCC(=O)O)C(=O)O)C(=O)O)C(=O)N[C@@H](CC(N)=O)C(=O)N[C@@H]([C@@H](C)O)C(=O)N[C@@H](C)C(=O)N[C@@H]([C@@H](C)O)C(=O)N1)[C@@H](C)O)C(=O)N1CCC[C@H]1C(=O)N[C@@H](CO)C(=O)N[C@@H](CO)C(=O)N[C@H](C(=O)N[C@@H](CC(N)=O)C(=O)N[C@H](C(=O)NCC(=O)N[C@@H](CO)C(=O)N[C@@H](CC(N)=O)C(=O)N[C@H](C(=O)N1CCC[C@H]1C(N)=O)[C@@H](C)O)C(C)C)[C@@H](C)O [Example 14] ({C20 diacid-γGlu-γGlu}-KCNTATCATQRLAEFLRHSSPNFGAIPSSTNVGSNTP-NH2; disulfide 2-7)
